Assay results: US20240246941A1, “SUBSTITUTED 4-(3-AMINOPROP-1-YL)AMINOQUINOLINE ANALOGS AS MODULATORS OF MELANOMA-ASSOCIATED ANTIGEN 11 UBIQUITIN LIGASE” (ST. JUDE CHILDREN'S RESEARCH HOSPITAL, INC., priority 2020, published 2024)
pIC50: −log10 of the molar value. In brackets after ≈: the same amount, converted by molar mass. Read-outs that look alike come from different tables or passages of the source.

How the values were obtained:
[1] = High throughput Caco-2 permeability; assay type: in vitro ADME; details: human, 10 μmol/l, 2 h, 37° C.
Method: (§1) High throughput Caco-2 permeability was performed in the TranswellR 0.4 μm polycarbonate membrane 96-well system with modified methods. Caco-2 cells were maintained at 37° C. in a humidified incubator with an atmosphere of 5% CO2. The cells were cultured in 75 cm^2 flasks with Dulbecco's Modified Eagle's Medium (DMEM) containing 10% (v/v) FBS, 1% (v/v) non-essential amino acids (NEAA), 100 units/ml of penicillin, and 100 μg/ml of streptomycin. The Caco-2 cells were seeded onto inserts at a density of 2×10^4 cells/insert separately. The medium in the wells was exchanged each other day, and the trans epithelial electrical resistance (TEER) value was measured using an epithelial voltohm meter (Millipore, Billerica, Massachusetts). […] For transport experiments, each cultured monolayer on the 96-well plate was washed twice with a transport buffer (HBSS containing 25 mM HEPES, pH 7.4). The permeability assay was initiated by the addition of each compound solution (10 μmol/l) into inserts (apical side, A) or receivers (basolateral side, B). The Caco-2 cell monolayers were incubated for 2 h at 37° C. Fractions were collected from receivers (if apical to basal permeability) or inserts (if basal to apical permeability), and concentrations were assessed by UPLC/MS (Waters; Milford, MA). All compounds were tested in triplicates. The A→B (or B→A) apparent permeability coefficients (Papp) of each compound were calculated using the equation, Papp=dQ/dt×1/AC0, where dQ/dt equals the flux of a drug across the monolayer, A equals the total insert well surface area, and C0 is the initial concentration of substrate in the donor compartment. The efflux ratio was determined by dividing the Papp in the B-A direction by the Papp in the A-B direction.

[2] = Solubility assay (μSOL Evolution, UV); assay type: physicochemical; details: 18 h at RT in buffer; for solubility at 18 h: aqueous buffer, kinetic from dmso stock
Method: Solubility assays were carried out on a Biomek FX lab automation workstation (Beckman Coulter, Inc., Fullerton, CA) using SOL Evolution software (pION Inc., Woburn, MA). The detailed method is described as follows. 10 μl of 10 mM compound stock (in DMSO) was added to 190 μl 1-propanol to make a reference stock plate. 5 μl from this reference stock plate were mixed with 70 μl 1-propanol and 75 μl citrate phosphate-buffered saline (PBS; isotonic) to make the reference plate, and the UV spectrum (250-500 nm) of the reference plate was read. 6 μl of 10 mM test compound stock was added to 594 μl buffer in a 96-well storage plate and mixed. The storage plate was sealed and incubated at RT for 18 h. The suspension was then filtered through a 96-well filter plate (pION Inc., Woburn, MA). 75 μl of filtrate was mixed with 75 μl 1-propanol to make the sample plate, and the UV spectrum of the sample plate was read. Calculations were carried out with μSOL Evolution software based on the area under the curve (AUC) of the UV spectrum of the sample and reference plates. All compounds were tested in triplicate.

[3] = target: interaction between GST-MAGEA11 MHD and FAM-PCF11_4 peptide (MAGE-A11:PCF11) (Homo sapiens (Human), UniProt P43364); assay: TR-FRET dose response competition assay for disruption of MAGE-A11:PCF11 binding
In short: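 Competition TR-FRET at room temperature in 50 mM Tris pH 7.5, 20 mM MgCl2, 0.1 mg/ml BSA, 1 mM DTT: final 5 nM GST-MAGEA11 MHD, 5 nM Tb-anti-GST, 200 nM FAM-PCF11_4, 90 min. Ratio 520/490 nm converted to % inhibition; IC50 from sigmoidal fit.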

Caco-2 cell monolayers = assay: High throughput Caco-2 permeability; assay type: in vitro ADME
Method: as §1

[4] = Caco-2, pH 7.4, apical to basolateral, read-out: Caco-2 permeability, A/B
[5] = Caco-2, pH 7.4, basolateral to apical, read-out: Caco-2 permeability, B/A
[6] = Table 6, 4-aminoquinoline compounds, read-out: TR-FRET, IC50
[7] = Table 8, representative compounds, read-out: TR-FRET IC50
[8] = read-out: IC50 by TR-FRET for disrupting MAGE-A11:PCF11 interaction

Chain of interaction between GST-MAGEA11 MHD and FAM-PCF11_4 peptide (MAGE-A11:PCF11) (P43364 218-429): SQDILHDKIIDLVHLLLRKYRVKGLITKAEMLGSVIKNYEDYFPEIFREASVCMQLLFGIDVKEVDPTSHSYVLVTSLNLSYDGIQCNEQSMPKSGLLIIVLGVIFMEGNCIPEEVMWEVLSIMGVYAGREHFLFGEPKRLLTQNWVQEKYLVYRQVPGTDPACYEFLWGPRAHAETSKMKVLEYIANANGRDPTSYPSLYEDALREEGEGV

## Clc1ccc2c(NCCCNCc3ccc4[nH]ccc4c3)ccnc2c1 [SJ000520909-03, N^1-((1H-Indol-5-yl)methyl)-N^3-(7-chloroquinolin-4-yl)propane-1,3-diamine]
[1]; [4]
  Papp at 2 h, 10 μmol/l: 19.6 ×10⁻⁶ cm/s
[1]; [5]
  Papp at 2 h, 10 μmol/l: 21.3 ×10⁻⁶ cm/s
[2]
  solubility at 18 h: 59.8 µM (≈ 21.8 µg/mL)
[3]; [6]
  pIC50: 6.62
[3]; [7]
  pIC50: 4.17

## FC(F)(F)c1ccc2c(NCCCNCc3ccc4c(c3)OCO4)ccnc2c1 [SJ000361106-02, N^1-(Benzo[d][1,3]dioxol-5-ylmethyl)-N^3-(7-(trifluoromethyl)quinolin-4-yl)propane-1,3-diamine]
[1]; [4]
  Papp at 2 h, 10 μmol/l: 47 ×10⁻⁶ cm/s
[1]; [5]
  Papp at 2 h, 10 μmol/l: 40 ×10⁻⁶ cm/s
[2]
  solubility at 18 h: 129 µM (≈ 51.9 µg/mL)
[3]; [6]
  pIC50: < 4.13
[3]; [7]
  pIC50: 4.16

## c1ccc2c(NCCCNCc3ccc4[nH]ccc4c3)ccnc2c1 [SJ001008066-01, N^1-((1H-Indol-5-yl)methyl)-N^3-(quinolin-4-yl)propane-1,3-diamine]
Caco-2 cell monolayers
  cell permeability: cell permeable
[1]; [4]
  Papp at 2 h, 10 μmol/l: 8.17 ×10⁻⁶ cm/s
[1]; [5]
  Papp at 2 h, 10 μmol/l: 8.09 ×10⁻⁶ cm/s
[2]
  Solubility: 37.77 µM (≈ 12.5 µg/mL)
[3]; [8]
  pIC50: 6.89

## Cn1ccc2cc(CNCCCNc3ccnc4cc(C(F)(F)F)ccc34)ccc21 [SJ001008067-01, N^1-((1-Methyl-1H-indol-5-yl)methyl)-N^3-(7-(trifluoromethyl)quinolin-4-yl)propane-1,3-diamine]
[1]; [4]
  Papp at 2 h, 10 μmol/l: 21.4 ×10⁻⁶ cm/s
[1]; [5]
  Papp at 2 h, 10 μmol/l: 12.3 ×10⁻⁶ cm/s
[2]
  solubility at 18 h: 19.4 µM (≈ 8 µg/mL)
[3]; [6]
  pIC50: 5.94

## CC(C)(C)c1ccc(-c2ccc3c(NCCCNCc4ccc5[nH]ccc5c4)ccnc3c2)cc1 [SJ001008068-01, N^1-((1H-Indol-5-yl)methyl)-N^3-(7-(4-(tert-butyl)phenyl)quinolin-4-yl)propane-1,3-diamine]
[1]; [4]
  Papp at 2 h, 10 μmol/l: 0.368 ×10⁻⁶ cm/s
[1]; [5]
  Papp at 2 h, 10 μmol/l: 1.54 ×10⁻⁶ cm/s
[2]
  solubility at 18 h: 0.67 µM (≈ 0.31 µg/mL)
[3]; [6]
  pIC50: 6.89

## C=CC(=O)N(CCCNc1ccnc2ccccc12)Cc1ccc2[nH]ccc2c1 [SJ001009807-01, N-((1H-Indol-5-yl)methyl)-N-(3-(quinolin-4-ylamino)propyl)acrylamide]
[1]; [4]
  Papp at 2 h, 10 μmol/l: 2.73 ×10⁻⁶ cm/s
[1]; [5]
  Papp at 2 h, 10 μmol/l: 18.9 ×10⁻⁶ cm/s
[2]
  solubility at 18 h: 34.8 µM (≈ 13.4 µg/mL)
[3]; [6]
  pIC50: 5.46

## FC(F)(F)c1cc(-c2ccc3c(NCCCNCc4ccc5[nH]ccc5c4)ccnc3c2)cc(C(F)(F)F)c1 [SJ001008069-01, N^1_((1H-Indol-5-yl)methyl)-N^3-(7-(3,5-bis(trifluoromethyl)phenyl)quinolin-4-yl)propane-1,3-diamine]
[1]; [4]
  Papp at 2 h, 10 μmol/l: 0.498 ×10⁻⁶ cm/s
[1]; [5]
  Papp at 2 h, 10 μmol/l: 0.229 ×10⁻⁶ cm/s
[2]
  solubility at 18 h: 0.12 µM (≈ 0.0651 µg/mL)
[3]; [6]
  pIC50: 6.70

## CC(C)(C)c1ccc(-c2ccc3c(NCCCNCc4ccco4)ccnc3c2)cc1 [SJ000311286-01]
[1]; [4]
  Papp at 2 h, 10 μmol/l: 0.578 ×10⁻⁶ cm/s
[1]; [5]
  Papp at 2 h, 10 μmol/l: 0.12 ×10⁻⁶ cm/s
[2]
  Solubility: 56.16 µM (≈ 23.2 µg/mL)
[3]; [8]
  pIC50: 5.94

## FC(F)(F)c1ccc2c(NCCCNCc3ccco3)ccnc2c1 [SJ000361113-02, N^1-(Furan-2-ylmethyl)-N^3-(7-(trifluoromethyl)quinolin-4-yl)propane-1,3-diamine]
[1]; [4]
  Papp at 2 h, 10 μmol/l: 50.2 ×10⁻⁶ cm/s
[1]; [5]
  Papp at 2 h, 10 μmol/l: 40.1 ×10⁻⁶ cm/s
[2]
  solubility at 18 h: 119 µM (≈ 41.6 µg/mL)
[3]; [6]
  pIC50: < 4.15

## Brc1ccc2c(NCCCNCc3ccc4[nH]ccc4c3)ccnc2c1 [SJ001008065-01, N^1-((1H-Indol-5-yl)methyl)-N^3-(7-bromoquinolin-4-yl)propane-1,3-diamine]
[1]; [4]
  Papp at 2 h, 10 μmol/l: 18.3 ×10⁻⁶ cm/s
[1]; [5]
  Papp at 2 h, 10 μmol/l: 19.3 ×10⁻⁶ cm/s
[2]
  solubility at 18 h: 57.1 µM (≈ 23.4 µg/mL)
[3]; [6]
  pIC50: 6.21

## FC(F)(F)c1cc(-c2ccc3c(NCCCNCc4ccco4)ccnc3c2)cc(C(F)(F)F)c1 [SJ000311270-01]
[1]; [4]
  Papp at 2 h, 10 μmol/l: 0.326 ×10⁻⁶ cm/s
[1]; [5]
  Papp at 2 h, 10 μmol/l: 0.079 ×10⁻⁶ cm/s
[2]
  Solubility: 61.08 µM (≈ 30.1 µg/mL)
[3]; [6]
  pIC50: 6.24
